Measured values reported in patent US11713338B2, “Cyclic peptides multimers targeting α-4-β-7 integrin” (priority 2016, dated 2023).

Key:
Type in all cases: cell-based
[1] = biological target: T1, integrin α4β7 on α4β7+ memory T helper cells (Homo sapiens, UniProt P13612+P26010); experiment: MAdCAM-1 competition / receptor occupancy assay in human whole blood, α4β7-positive Th memory cells; conditions: human whole blood; for IC50: inhibition of MAdCAM-1 binding to α4β7-positive Th memory cells, FACS, read-out: MADCAM FACS α4β7 Th mem
T1 construct: endogenous in cells
T1 sequence (P13612 34-1032): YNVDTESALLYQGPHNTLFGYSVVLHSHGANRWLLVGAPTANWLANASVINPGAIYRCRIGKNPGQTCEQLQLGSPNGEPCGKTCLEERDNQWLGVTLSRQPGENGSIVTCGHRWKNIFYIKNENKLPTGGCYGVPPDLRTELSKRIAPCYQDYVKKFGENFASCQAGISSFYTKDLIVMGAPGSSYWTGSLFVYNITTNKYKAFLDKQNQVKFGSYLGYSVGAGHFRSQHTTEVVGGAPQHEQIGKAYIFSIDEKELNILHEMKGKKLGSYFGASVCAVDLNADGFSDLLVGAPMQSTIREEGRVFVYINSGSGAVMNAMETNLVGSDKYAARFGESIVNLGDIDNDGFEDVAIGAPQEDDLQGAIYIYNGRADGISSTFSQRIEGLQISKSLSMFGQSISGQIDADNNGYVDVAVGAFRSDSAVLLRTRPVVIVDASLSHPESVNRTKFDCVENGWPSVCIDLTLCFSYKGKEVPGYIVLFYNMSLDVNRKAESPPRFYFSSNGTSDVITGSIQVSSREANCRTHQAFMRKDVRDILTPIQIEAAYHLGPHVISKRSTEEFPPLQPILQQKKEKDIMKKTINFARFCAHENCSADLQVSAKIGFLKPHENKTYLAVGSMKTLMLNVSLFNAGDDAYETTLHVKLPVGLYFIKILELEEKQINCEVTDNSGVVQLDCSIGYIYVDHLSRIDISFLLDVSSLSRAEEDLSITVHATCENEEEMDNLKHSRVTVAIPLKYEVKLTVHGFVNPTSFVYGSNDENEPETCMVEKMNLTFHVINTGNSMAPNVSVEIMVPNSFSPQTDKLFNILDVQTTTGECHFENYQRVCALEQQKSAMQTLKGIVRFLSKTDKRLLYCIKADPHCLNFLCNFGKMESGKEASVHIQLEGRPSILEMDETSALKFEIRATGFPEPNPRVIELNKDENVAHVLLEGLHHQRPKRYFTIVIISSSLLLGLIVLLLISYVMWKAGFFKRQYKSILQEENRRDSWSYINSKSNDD
T1 sequence (P26010 20-798): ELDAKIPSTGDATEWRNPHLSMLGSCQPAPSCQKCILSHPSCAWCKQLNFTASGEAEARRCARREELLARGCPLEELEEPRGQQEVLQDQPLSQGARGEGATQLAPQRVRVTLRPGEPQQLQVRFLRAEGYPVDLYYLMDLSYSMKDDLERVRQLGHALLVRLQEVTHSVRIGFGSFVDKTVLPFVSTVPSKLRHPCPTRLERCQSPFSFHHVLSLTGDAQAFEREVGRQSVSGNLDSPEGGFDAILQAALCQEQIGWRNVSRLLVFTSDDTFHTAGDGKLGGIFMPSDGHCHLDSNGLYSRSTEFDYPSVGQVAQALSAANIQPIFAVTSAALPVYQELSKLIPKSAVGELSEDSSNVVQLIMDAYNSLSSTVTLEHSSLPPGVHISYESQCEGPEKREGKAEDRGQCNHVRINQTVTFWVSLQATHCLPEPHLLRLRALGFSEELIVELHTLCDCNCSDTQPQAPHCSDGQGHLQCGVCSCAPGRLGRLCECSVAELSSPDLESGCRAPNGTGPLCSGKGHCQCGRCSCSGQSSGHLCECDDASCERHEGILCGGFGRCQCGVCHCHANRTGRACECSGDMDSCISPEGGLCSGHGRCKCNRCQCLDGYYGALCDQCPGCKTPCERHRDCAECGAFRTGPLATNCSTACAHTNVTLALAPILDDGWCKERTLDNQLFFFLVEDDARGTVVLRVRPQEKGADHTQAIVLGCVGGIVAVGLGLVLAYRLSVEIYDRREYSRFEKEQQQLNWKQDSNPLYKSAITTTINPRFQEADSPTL
Experimental: Analyte Competition Assay in CD4+ Integrin α4+β7-Lo Memory T Cells
Receptor occupancy in primary cells was determined by measuring the amount of biotinylated human recombinant MAdCAM-1-FC or human recombinant VCAM-1-Fc bound to selected cell populations using flow cytometry. Human recombinant MAdCAM-1-FC or human recombinant VCAM-1-FC (R&D systems) were biotinylated using commercially available reagents and protocol (Pierce).
Whole blood was collected from human donors in sodium heparin tubes. […] Cells were washed twice with 1 mL of 1X DPBS calcium magnesium free (CMF) (ThermoFisher Scientific) and resuspended in 100 microL of DPBS CMF.
Biotinylated human recombinant MAdCAM-1-Fc or VCAM-1-Fc were added at saturating concentration and incubated at room temperature for 1 hour. […] Cells were washed with 1 mL stain buffer-FBS (BD Biosciences) and resuspended in 100 μl stain Buffer-FBS (BD Biosciences) containing 4 mM MnCl2. […] Cells were then washed with 1 mL stain buffer-FBS and resuspended in […] stain buffer-FBS. The cells were incubated in the dark for 30 minutes at room temperature with 1 ul Streptavidin APC (Biolegend 0.2 mg/ml) and a panel of antibodies for the detection of memory T helper a4b7-positive cells subset. And amount of 5.0 ul each of the following antibodies were used; CD45 FITC (BioLegend 200 ug/ml), CD29 APC Cy7 (BioLegend 100 ug/ml), Integrin beta7 PE, (BioLegend concentration 50 μg/mL), CD49d V421 (BioLegend 50 μg/mL), CD3 V510 (BioLegend 30 μg/mL), CD4 PECy7 (BioLegend 100 μg/mL), CD45RO PerCP, BioLegend 200 μg/mL). The cells were then washed with stain-buffer-FBS and resuspended in 150 microL stain buffer-FBS for acquisition on the flow cytometer (BD FACSCanto™ flow cytometer and BDFACSDiva™ software). FACS data was acquire by electronic gating on the basis of forward versus side scatter, The cytometer was set to collect 20,000 events in each tube. Cell population were determined using the following markers, CD45+, CD3+, CD4+, CD45RO+, CD49d+, integrin b7, biotinylated ligands.
Compound receptor occupancy was defined as the decrease in the number of integrin β7+ or integrin β7-lo cells binding biotinylated rhMAdCAM-1 or rhVCAM-1, respectively.
Receptor occupancy was calculated with the following equation: 100−((% ligand-positive cells with compound/% ligand-positive cells DMSO)*100) In Vivo T Lymphocyte Trafficking Analysis in Mouse Model of Colitis

[2] = biological target: T2, integrin α4β7 (RPMI8866 human cells adhering to MAdCAM-1) (Homo sapiens, UniProt P13612+P26010); experiment: Integrin α4β7-MAdCAM cell adhesion assay (RPMI8866 cells); conditions: RPMI8866 cells adhering to MAdCAM; read-out: RPMI8866 Adhesion α4β7/MAdCAM IC50
T2 construct: RMP18866 cells, which express integrin α4β7; host or cells: RPMI8866
T2 sequence (P13612 34-1032): T1 sequence (P13612 34-1032)
T2 sequence (P26010 20-798): T1 sequence (P26010 20-798)
Summary of the method: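 Adhesion was read by calcein fluorescence. RPMI8866 cells were labelled at 10 million cells/ml with […] calcein (37° C., 30 min) and washed twice in PBS before reading. Dose-response values were corrected by subtracting cell-free control well fluorescence.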

[3] = biological target: T3, integrin α4β1 (RAMOS human cells adhering to VCAM-1) (Homo sapiens, UniProt P05556+P13612); experiment: Integrin α4β1-VCAM cell adhesion assay (RAMOS cells); conditions: for IC50: Ramos cells adhering to VCAM, read-out: Ramos Adhesion α4β1/VCAM IC50
T3 construct: Ramos cells, which express integrin α4β1; host or cells: RAMOS
T3 sequence (P05556 21-798, one chain of several): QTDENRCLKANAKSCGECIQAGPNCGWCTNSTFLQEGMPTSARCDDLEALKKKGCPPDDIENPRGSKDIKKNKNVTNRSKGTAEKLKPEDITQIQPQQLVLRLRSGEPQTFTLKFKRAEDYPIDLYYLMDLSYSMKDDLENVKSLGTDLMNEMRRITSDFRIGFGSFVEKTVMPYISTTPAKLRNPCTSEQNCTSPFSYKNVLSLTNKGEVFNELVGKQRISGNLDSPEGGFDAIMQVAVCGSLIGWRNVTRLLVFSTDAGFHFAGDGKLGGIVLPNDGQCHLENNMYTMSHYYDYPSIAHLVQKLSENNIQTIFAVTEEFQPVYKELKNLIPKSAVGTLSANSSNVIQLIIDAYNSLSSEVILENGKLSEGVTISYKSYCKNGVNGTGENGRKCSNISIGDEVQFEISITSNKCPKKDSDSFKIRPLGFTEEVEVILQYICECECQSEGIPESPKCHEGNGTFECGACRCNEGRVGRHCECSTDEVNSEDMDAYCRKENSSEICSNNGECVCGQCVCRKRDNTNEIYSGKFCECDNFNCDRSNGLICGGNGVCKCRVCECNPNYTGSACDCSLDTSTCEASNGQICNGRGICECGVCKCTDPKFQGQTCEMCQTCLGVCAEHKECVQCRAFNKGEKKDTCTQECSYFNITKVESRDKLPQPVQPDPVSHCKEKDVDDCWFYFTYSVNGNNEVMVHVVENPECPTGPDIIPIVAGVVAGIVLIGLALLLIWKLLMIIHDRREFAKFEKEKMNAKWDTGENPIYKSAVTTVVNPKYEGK
Experimental: Integrin α4β1-VCAM Cell Adhesion Assay
The plate was incubated overnight at 4° C. and washed twice with 150 μl per well wash buffer (0.05% Tween 20 in PBS), blocked with 250 μl per well blocking buffer (1% non-fat dry milk in PBS), for 1 hour at room temperature. During blocking step, RAMOS cells were resuspended at 10 million cells/ml in PBS containing […] and incubated at 37° C. for 30 min in a 50 ml tube. […] The plate was emptied by inverting and blotting on paper towels and washed manually twice with PBS. […] To calculate the dose response, the fluorescence value of control wells not containing cells was subtracted from each test well.

Q: For CC(C)C[C@@H]1NC(=O)c2ccc(-c3ccc(N4CCNCC4)cc3)c(c2)CNC(=O)[C@@H]2CCCN2[C@H](C(=O)NC(C)(C)C)[C@H](C)NC(=O)[C@H]([C@@H](C)O)NC(=O)[C@H](CC(=O)O)NC1=O [Compound 340], which “receptor occupancy at low concentrations” value ([1]; low concentrations) is on record?
A: The value was 50%.

Q: For CC(C)C[C@@H]1NC(=O)c2ccc(-c3ccc(N4CCN(C(=O)Cc5cccc(CC(=O)N6CCN(c7ccc(-c8ccc9cc8CNC(=O)[C@@H]8CCCN8[C@H](C(=O)NC(C)(C)C)[C@H](C)NC(=O)[C@H]([C@@H](C)O)NC(=O)[C@H](CC(=O)O)NC(=O)[C@H](CC(C)C)NC9=O)cc7)CC6)c5)CC4)cc3)c(c2)CNC(=O)[C@@H]2CCCN2[C@H](C(=O)NC(C)(C)C)[C@H](C)NC(=O)[C@H]([C@@H](C)O)NC(=O)[C@H](CC(=O)O)NC1=O [Compound 462], which IC50 [1] is on record?
A: The IC50 was 68 nM.

Q: And the IC50 [2]?
A: Its IC50 is 42 nM.

Q: CC(C)C[C@@H]1NC(=O)c2ccc(-c3ccc(N4CCN(C(=O)c5ccnc(-c6cc(C(=O)N7CCN(c8ccc(-c9ccc%10cc9CNC(=O)[C@@H]9CCCN9[C@H](C(=O)NC(C)(C)C)[C@H](C)NC(=O)[C@H]([C@@H](C)O)NC(=O)[C@H](CC(=O)O)NC(=O)[C@H](CC(C)C)NC%10=O)cc8)CC7)ccn6)c5)CC4)cc3)c(c2)CNC(=O)[C@@H]2CCCN2[C@H](C(=O)NC(C)(C)C)[C@H](C)NC(=O)[C@H]([C@@H](C)O)NC(=O)[C@H](CC(=O)O)NC1=O [Compound 465] was tested. Which IC50 [1] did it give?
A: The IC50 was 132 nM.

Q: For CC(C)C[C@@H]1NC(=O)c2ccc(-c3ccc(N4CCN(C(=O)c5ccc6cc(C(=O)N7CCN(c8ccc(-c9ccc%10cc9CNC(=O)[C@@H]9CCCN9[C@H](C(=O)NC(C)(C)C)[C@H](C)NC(=O)[C@H]([C@@H](C)O)NC(=O)[C@H](CC(=O)O)NC(=O)[C@H](CC(C)C)NC%10=O)cc8)CC7)ccc6c5)CC4)cc3)c(c2)CNC(=O)[C@@H]2CCCN2[C@H](C(=O)NC(C)(C)C)[C@H](C)NC(=O)[C@H]([C@@H](C)O)NC(=O)[C@H](CC(=O)O)NC1=O [Compound 471], which IC50 [1] is on record?
A: Its IC50 is 46 nM.

Q: And the IC50 [2]?
A: The IC50 was 29 nM.

Q: With CC(C)C[C@@H]1NC(=O)c2ccc(-c3ccc(N4CCN(C(=O)c5cc(C(=O)N6CCN(c7ccc(-c8ccc9cc8CNC(=O)[C@@H]8CCCN8[C@H](C(=O)NC(C)(C)C)[C@H](C)NC(=O)[C@H]([C@@H](C)O)NC(=O)[C@H](CC(=O)O)NC(=O)[C@H](CC(C)C)NC9=O)cc7)CC6)cc(C(F)(F)F)c5)CC4)cc3)c(c2)CNC(=O)[C@@H]2CCCN2[C@H](C(=O)NC(C)(C)C)[C@H](C)NC(=O)[C@H]([C@@H](C)O)NC(=O)[C@H](CC(=O)O)NC1=O [Compound 477] as the compound, how does the IC50 [1] read?
A: The IC50 was 124 nM.

Q: What about the IC50 [2] of the same compound?
A: The IC50 was 21 nM.

Q: CC(C)C[C@@H]1NC(=O)c2ccc(-c3ccc(N4CCN(C(=O)C[C@H](N)C(=O)N5CCN(c6ccc(-c7ccc8cc7CNC(=O)[C@@H]7CCCN7[C@H](C(=O)NC(C)(C)C)[C@H](C)NC(=O)[C@H]([C@@H](C)O)NC(=O)[C@H](CC(=O)O)NC(=O)[C@H](CC(C)C)NC8=O)cc6)CC5)CC4)cc3)c(c2)CNC(=O)[C@@H]2CCCN2[C@H](C(=O)NC(C)(C)C)[C@H](C)NC(=O)[C@H]([C@@H](C)O)NC(=O)[C@H](CC(=O)O)NC1=O [Compound 492] was tested. Which IC50 [1] did it give?
A: The IC50 was 104 nM.

Q: And the IC50 [2]?
A: The IC50 was 25 nM.

Q: CC(C)C[C@@H]1NC(=O)c2ccc(-c3ccc(N4CCN(C(=O)c5cc6ccccc6c(Cc6c(O)c(C(=O)N7CCN(c8ccc(-c9ccc%10cc9CNC(=O)[C@@H]9CCCN9[C@H](C(=O)NC(C)(C)C)[C@H](C)NC(=O)[C@H]([C@@H](C)O)NC(=O)[C@H](CC(=O)O)NC(=O)[C@H](CC(C)C)NC%10=O)cc8)CC7)cc7ccccc67)c5O)CC4)cc3)c(c2)CNC(=O)[C@@H]2CCCN2[C@H](C(=O)NC(C)(C)C)[C@H](C)NC(=O)[C@H]([C@@H](C)O)NC(=O)[C@H](CC(=O)O)NC1=O [Compound 502] was tested. Which IC50 [3] did it give?
A: The IC50 was 779 nM.

Q: What about the “Ratio Ramos/RPMI” value ([3]; ratio of cell adhesion IC50s, Ramos α4β1/VCAM over RPMI8866 α4β7/MAdCAM) of the same compound?
A: Its value is 8.

Q: What about the IC50 [2] of the same compound?
A: Its IC50 is 102 nM.

Q: For CC(C)C[C@@H]1NC(=O)c2ccc(-c3ccc(N4CCN(C(=O)CCOCCOCCNC(=O)COCC(=O)NCCOCCOCCC(=O)N5CCN(c6ccc(-c7ccc8cc7CNC(=O)[C@@H]7CCCN7[C@H](C(=O)NC(C)(C)C)[C@H](C)NC(=O)[C@H]([C@@H](C)O)NC(=O)[C@H](CC(=O)O)NC(=O)[C@H](CC(C)C)NC8=O)cc6)CC5)CC4)cc3)c(c2)CNC(=O)[C@@H]2CCCN2[C@H](C(=O)NC(C)(C)C)[C@H](C)NC(=O)[C@H]([C@@H](C)O)NC(=O)[C@H](CC(=O)O)NC1=O [Compound 506], which IC50 [3] is on record?
A: The IC50 was 11000 nM.
